# Assays:
# [1] = test system: Spring wheat (Triticum aestivum Cadenza); experiment: Recovery response: regrowth (biomass) of water stressed wheat plants after re-watering; type: in vivo; details: 4-week-old wheat plants sprayed once with 30 mL of 1 mM after 9 days of drought; watering resumed 1 day after treatment
# Description: (§1) Spring wheat (Triticum aestivum Cadenza) seeds were sown in Rothamsted Prescription Compost Mix (75% medium grade (L+P) peat, 12% screened sterilised loam, 3% medium grade vermiculite, 10% grit (lime-free), 3.5 kg Osmocote Exact 3-4 month/m^3 (Scott's UK Professional, Ipswich, Suffolk, www.scottinternational.com), 0.5 kg PG mix/m^3 (Hydro Agri Ltd., Immingham, UK), Wetting agent and Lime) and grown in controlled environment conditions with a photoperiod of 16 hours light, 8 hours dark, day/night temperatures of 20° C./16° C., photon flux density of 600 μmol m^−2 s^−1, and ambient relative humidity. Once the plants had reached Feekes stage 4, water was withheld for 10 days. On the 9th day, 30 ml 1 mM solutions of oNPE-T6P and DMNBT6P were applied to all above-ground biomass, on the 10th day the watering schedule was reinstated. Plants were harvested to measure biomass production every 5 days for 30 days after watering was reinstated. Both experiments were completed in replicates of 6.
# Analysis of Variance (ANOVA) was applied to data to test for differences between treatments. A natural log transformation was used where necessary to ensure constant variance. The GENSTAT statistical system was used for this analysis (2011, 14th edition, ©VSN International Ltd, Hemel Hempstead, UK).
# The effect of the signalling precursors upon plant resilience and recovery were tested. Drought is still the biggest global factor that limits crop yields, even in developed countries, such as the UK (Boyer, 1982, Science 218: 443-448).
# [2] = test system: Spring wheat (Triticum aestivum Cadenza); experiment: Resurrection response: regrowth of new tissue from plants cut back after drought treatment; type: in vivo; details: one application of 1 mM one day prior to re-watering, cut at 5 days after re-watering, left to regrow for 10 days
# Description: as §1
# Analysis of Variance (ANOVA) was applied to data to test for differences between treatments. A natural log transformation was used where necessary to ensure constant variance. The GENSTAT statistical system was used for this analysis (2011, 14th edition, ©VSN International Ltd, Hemel Hempstead, UK). […]
smiles,measurement,setting,value
"COc1cc(COP(=O)(OCc2cc(OC)c(OC)cc2[N+](=O)[O-])OC[C@H]2O[C@H](O[C@H]3O[C@H](CO)[C@@H](O)[C@H](O)[C@H]3O)[C@H](O)[C@@H](O)[C@@H]2O)c([N+](=O)[O-])cc1OC [DMNB-T6P 2, 6-O-bis-(4,5-dimethoxy-2-nitrobenzyloxyphosphoryl)-D-trehalose]",regrowth (recovery response) following resumption of watering,[1],the effects were dramatic
"O=P(O)(O)OC[C@H]1O[C@H](O[C@H]2O[C@H](CO)[C@@H](O)[C@H](O)[C@H]2O)[C@H](O)[C@@H](O)[C@@H]1O [Compound T6P, trehalose 6-phosphate]",regrowth (resurrection response) of new tissue from plants cut back after drought treatment,[2],identical results to use of water alone
same,regrowth (recovery response) following resumption of watering,[1],identical results to use of water alone
"CC(OP(=O)(OC[C@H]1O[C@H](O[C@H]2O[C@H](CO)[C@@H](O)[C@H](O)[C@H]2O)[C@H](O)[C@@H](O)[C@@H]1O)OC(C)c1ccccc1[N+](=O)[O-])c1ccccc1[N+](=O)[O-] (stereo partly drawn) [oNPE-T6P 3, 6-O-bis[1-(2-nitrophenyl)-ethoxyphosphoryl]-D-trehalose]",regrowth (recovery response) following resumption of watering,[1],the effects were dramatic

# From patent US11533913B2, “Treating water stress in plants” (Rothamsted Research Limited, priority 2015, dated 2022)
